Measured values as given in patent publication US11117890B2, “Substituted isoindole allosteric EGFR inhibitors” (Hoffmann-La Roche Inc., priority 2017, dated 2021).
Structures can show the parent of a compound that is named as a salt.

Each compound was assayed against T1, Phospho-EGFR in H1975 cell line (Homo sapiens, UniProt P00533, L858R/T790M) (assay: HTRF Phospo EGFR Assay (Cellular)). Settings: H1975 cells; 6 hours compound incubation in starving medium; HTRF anti-Phospho-EGFR readout.
T1 construct: H1975 cell line was obtained from American Type Culture Collection; host or cells: H1975
T1 sequence (P00533 25-1210 T790M/L858R): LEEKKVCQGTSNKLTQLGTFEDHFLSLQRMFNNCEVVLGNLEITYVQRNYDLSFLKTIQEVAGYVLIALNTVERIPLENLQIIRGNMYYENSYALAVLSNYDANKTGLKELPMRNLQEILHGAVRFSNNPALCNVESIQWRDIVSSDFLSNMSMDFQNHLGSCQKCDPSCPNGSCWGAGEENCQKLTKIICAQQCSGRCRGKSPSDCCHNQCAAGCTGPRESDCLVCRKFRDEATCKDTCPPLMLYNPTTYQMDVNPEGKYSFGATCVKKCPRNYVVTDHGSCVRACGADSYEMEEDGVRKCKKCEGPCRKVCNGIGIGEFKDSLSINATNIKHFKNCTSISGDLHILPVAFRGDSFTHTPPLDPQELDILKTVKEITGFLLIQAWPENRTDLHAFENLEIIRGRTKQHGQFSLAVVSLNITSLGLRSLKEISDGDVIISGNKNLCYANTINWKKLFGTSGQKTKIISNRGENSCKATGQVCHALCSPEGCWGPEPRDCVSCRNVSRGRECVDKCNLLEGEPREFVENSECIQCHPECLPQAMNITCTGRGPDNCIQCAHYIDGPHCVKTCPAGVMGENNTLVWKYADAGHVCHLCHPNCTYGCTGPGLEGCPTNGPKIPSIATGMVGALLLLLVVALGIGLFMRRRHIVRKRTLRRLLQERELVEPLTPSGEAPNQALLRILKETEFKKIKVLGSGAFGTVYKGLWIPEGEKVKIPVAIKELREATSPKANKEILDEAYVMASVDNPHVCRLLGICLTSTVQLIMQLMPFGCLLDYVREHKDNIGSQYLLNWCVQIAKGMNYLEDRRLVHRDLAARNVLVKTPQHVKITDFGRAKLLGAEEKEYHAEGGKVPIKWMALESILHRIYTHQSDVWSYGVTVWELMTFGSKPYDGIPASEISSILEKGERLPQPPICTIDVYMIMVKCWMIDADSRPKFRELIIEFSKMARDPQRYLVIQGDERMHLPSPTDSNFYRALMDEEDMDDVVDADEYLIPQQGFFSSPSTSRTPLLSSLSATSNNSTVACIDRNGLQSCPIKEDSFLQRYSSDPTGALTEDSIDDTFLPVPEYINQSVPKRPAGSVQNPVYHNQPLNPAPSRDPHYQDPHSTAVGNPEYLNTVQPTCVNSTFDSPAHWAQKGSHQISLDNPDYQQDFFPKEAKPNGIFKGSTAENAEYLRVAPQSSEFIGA
Assay type: cell-based
Procedure: HTRF Phospo EGFR Assay (Cellular)
H1975 cell line was obtained from American Type Culture Collection (Manassas, Va., USA). Cells were maintained at 37° C., 5% CO2 in complete Media RPMI 1640 without phenol red containing 0.3 mg/ml glutamine, 100 IU/ml penicillin, and […] (Gibco) supplemented with 10% fetal bovine serum (FBS) (Gibco). Compounds were diluted into starving medium RPMI 1640 Media without phenol red containing 0.3 mg/ml glutamine, 100 IU/ml penicillin, and […] (Gibco).
Cells were cultured overnight in a 384-well white plate (8000 cells/well) using 8 μl of complete medium/well. Cells were washed two times with 20 μl of starving medium. Media was removed by tapping plates on tissue and subsequently 8 μl of fresh starving medium/well was added. Then 4 μl/well of the 3×compound solution, containing a half-log dilution series of the compound or DMSO in starving medium, were added to the cells. After 6 hours at 37° C., 5% CO2 cells were lysed by adding to the compound mix 4 μl/well of the supplemented lysis buffer, followed by incubation for 30 min at room temperature with shaking. Lysates were stored at −20° C. overnight. The following day plates were thawed and 2 μl of anti-Phospho-EGFR Cryptate and 2 μl of anti-Phospho-EGFR-d2 antibody solutions prepared in the detection buffer were added. The plates were then incubated for at least 4 h at room temperature before reading the fluorescence emission at 620 and 665 nm using PHERAstar FX plate reader (BMG Labtech).

Compound	IC50 [nM]
Nc1ccc(C#Cc2ccc3c(c2)C(=O)N(C(C(=O)Nc2nccs2)c2cccc(F)c2)C3)cn1 (racemic) [Example 4, (2RS)-2-[6-[2-(6-Amino-3-pyridyl)ethynyl]-1-oxo-isoindolin-2-yl]-2-(3-fluorophenyl)-N-thiazol-2-yl-acetamide]	9
Nc1ccc(C#Cc2ccc3c(c2)C(=O)N(C(C(=O)Nc2nccs2)c2ncccc2O)C3)cn1 (racemic) [Example 25, (2RS)-2-[6-[2-(6-Amino-3-pyridyl)ethynyl]-1-oxo-isoindolin-2-yl]-2-(3-hydroxy-2-pyridyl)-N-thiazol-2-yl-acetamide trifluoroacetate]	2
Nc1ccc(C#Cc2ccc3c(c2)C(=O)N(C(C(=O)Nc2nccs2)c2ccccc2)C3)cn1 (racemic) [Example 3, (2RS)-2-[6-[2-(6-Amino-3-pyridyl)ethynyl]-1-oxo-isoindolin-2-yl]-2-phenyl-N-thiazol-2-yl-acetamide]	32
O=C(Nc1nccs1)C(c1cc(F)ccc1O)N1Cc2ccc(C#Cc3ccc(CN4CCOCC4)cc3)cc2C1=O (racemic) [Example 27, (2RS)-2-(5-Fluoro-2-hydroxy-phenyl)-2-[6-[2-[4-(morpholinomethyl)phenyl]ethynyl]-1-oxo-isoindolin-2-yl]-N-thiazol-2-yl-acetamide]	5
CCN1CCN(Cc2ccc(C#Cc3ccc4c(c3)C(=O)N(C(C(=O)Nc3nccs3)c3ccccc3)C4)cc2)CC1 (racemic) [Example 13, (2RS)-2-[6-[2-[4-[(4-Ethylpiperazin-1-yl)methyl]phenyl]ethynyl]-1-oxo-isoindolin-2-yl]-2-phenyl-N-thiazol-2-yl-acetamide]	69
Nc1ccc(C#Cc2ccc3c(c2)C(=O)N(C(C(=O)Nc2nccs2)c2cc(Cl)ccc2O)C3)cn1 (racemic) [Example 23, (2RS)-2-[6-[2-(6-Amino-3-pyridyl)ethynyl]-1-oxo-isoindolin-2-yl]-2-(5-chloro-2-hydroxy-phenyl)-N-thiazol-2-yl-acetamide]	4
O=C(Nc1nccs1)C(c1ccccc1)N1Cc2ccc(C#Cc3ccc(C(=O)N4CCOCC4)nc3)cc2C1=O (racemic) [Example 14, (2RS)-2-[6-[2-[6-(Morpholine-4-carbonyl)-3-pyridyl]ethynyl]-1-oxo-isoindolin-2-yl]-2-phenyl-N-thiazol-2-yl-acetamide]	51
CN1CCN(Cc2ccc(C#Cc3ccc4c(c3)C(=O)N(C(C(=O)Nc3nccs3)c3cc(F)ccc3O)C4)cc2)CC1 (racemic) [Example 30, (2RS)-2-(5-Fluoro-2-hydroxy-phenyl)-2-[6-[2-[4-1(4-methylpiperazin-1-yl)methyl]phenyl]ethynyl]-1-oxo-isoindolin-2-yll-N-thiazol-2-yl-acetamide]	7
CC(=O)Nc1ccc(C#Cc2ccc3c(c2)C(=O)N(C(C(=O)Nc2nccs2)c2ccccc2)C3)cn1 (racemic) [Example 7, (2RS)-2-[6-[2-(6-Acetamido-3-pyridyl)ethynyl]-1-oxo-isoindolin-2-yl]-2-phenyl-N-thiazol-2-yl-acetamide]	10
O=C(Nc1nccs1)C(c1ccccc1)N1Cc2ccc(C#Cc3ccccc3)cc2C1=O (racemic) [Example 1, (2RS)-2-[1-Oxo-6-(2-phenylethynyl)isoindolin-2-yl]-2-phenyl-N-thiazol-2-yl-acetamide]	45
Nc1ccc(C#Cc2ccc3c(c2)C(=O)N(C(C(=O)Nc2ccccn2)c2cc(F)ccc2O)C3)cn1 (racemic) [Example 20, (2RS)-2-[6-[2-(6-Amino-3-pyridyl)ethynyl]-1-oxo-isoindolin-2-yl]-2-(5-fluoro-2-hydroxy-phenyl)-N-(2-pyridyl)acetamide]	4
O=C(Nc1nccs1)C(c1ccccc1)N1Cc2ccc(C#Cc3ccc(CN4CCNCC4)cc3)cc2C1=O (racemic) [Example 10, (2RS)-2-[1-Oxo-6-[2-[4-(piperazin-1-ylmethyl)phenyl]ethynyl]isoindolin-2-yl]-2-phenyl-N-thiazol-2-yl-acetamide hydrochloride]	43
Nc1ccc(C#Cc2ccc3c(c2)C(=O)N(C(C(=O)Nc2nccs2)c2cc(F)ccc2F)C3)cn1 (racemic) [Example 5, (2RS)-2-[6-[2-(6-Amino-3-pyridyl)ethynyl]-1-oxo-isoindolin-2-yl]-2-(2,5-difluorophenyl)-N-thiazol-2-yl-acetamide]	7
CCN1CCN(Cc2ccc(C#Cc3ccc4c(c3)C(=O)N(C(C(=O)Nc3nccs3)c3cc(F)ccc3O)C4)cc2)CC1 (racemic) [Example 31, (2RS)-2-[6-[2-[4-1(4-Ethylpiperazin-1-yl)methyl]phenyl]ethynyl1-1-oxo-isoindolin-2-yl]-2-(5-fluoro-2-hydroxy-phenyl)-N-thiazol-2-yl-acetamide]	7
NCc1ccc(C#Cc2ccc3c(c2)C(=O)N(C(C(=O)Nc2nccs2)c2ccccc2)C3)cc1 (racemic) [Example 6, (2RS)-2-[6-[2-[4-(Aminomethyl)phenyl]ethynyl]-1-oxo-isoindolin-2-yl]-2-phenyl-N-thiazol-2-yl-acetamide]	35
O=C(Nc1nccs1)C(c1ccccc1)N1Cc2ccc(C#Cc3cccnc3)cc2C1=O (racemic) [Example 2, (2RS)-2-[1-oxo-6-[2-(3-pyridyl)ethynyl]isoindolin-2-yl]-2-phenyl-N-thiazol-2-yl-acetamide]	42
O=C(Nc1nccs1)C(c1cc(F)ccc1O)N1Cc2ccc(C#Cc3cccnc3)cc2C1=O (racemic) [Example 16, (2RS)-2-(5-Fluoro-2-hydroxy-phenyl)-2-[1-oxo-6-[2-(3-pyridyl)ethynyl]isoindolin-2-yl]-N-thiazol-2-yl-acetamide]	1
O=C(Nc1nccs1)C(c1cc(F)ccc1O)N1Cc2ccc(C#Cc3ccc(CN4CCC(O)CC4)cc3)cc2C1=O (racemic) [Example 28, (2RS)-2-(5-Fluoro-2-hydroxy-phenyl)-2-[6-[2-[4-1(4-hydroxy-1-piperidyl)methyl]phenyllethynyl]-1-oxo-isoindolin-2-yl]-N-thiazol-2-yl-acetamide]	7
CC(=O)N1CCN(Cc2ccc(C#Cc3ccc4c(c3)C(=O)N(C(C(=O)Nc3nccs3)c3ccccc3)C4)cc2)CC1 (racemic) [Example 12, (2RS)-2-[6-[2-[4-[(4-acetylpiperazin-1-yl)methyl]phenyl]ethynyl]-1-oxo-isoindolin-2-yl]-2-phenyl-N-thiazol-2-1-acetamide]	14
Nc1ccc(C#Cc2ccc3c(c2)C(=O)N(C(C(=O)Nc2nccs2)c2ccccc2O)C3)cn1 (racemic) [Example 24, (2RS)-2-[6-[2-(6-Amino-3-pyridyl)ethynyl]-1-oxo-isoindolin-2-yl]-2-(2-hydroxyphenyl)-N-thiazol-2-yl-acetamide]	4
Nc1ncc(C#Cc2ccc3c(c2)C(=O)N(C(C(=O)Nc2nccs2)c2cc(F)ccc2O)C3)cn1 (racemic) [Example 18, (2RS)-2-[6-[2-(2-Aminopyrimidin-5-yl)ethynyl]-1-oxo-isoindolin-2-yl]-2-(5-fluoro-2-hydroxy-phenyl)-N-thiazol-2-yl-acetamide]	2
O=C(Nc1nccs1)C(c1ccccc1)N1Cc2ccc(C#Cc3ccc(CN4CCOCC4)cc3)cc2C1=O (racemic) [Example 11, (2RS)-2-[6-[2-[4-(Morpholinomethyl)phenyl]ethynyl]-1-oxo-isoindolin-2-yl]-2-phenyl-N-thiazol-2-yl-acetamide]	61
Nc1ccc(C#Cc2ccc3c(c2)C(=O)N(C(C(=O)Nc2nccs2)c2n[nH]c4c2CCC4)C3)cn1 (racemic) [Example 8, (2RS)-2-[6-[2-(6-Amino-3-pyridyl)ethynyl]-1-oxo-isoindolin-2-yl]-2-(1,4,5,6-tetrahydrocyclopenta[c]pyrazol-3-yl)-N-thiazol-2-yl-acetamide]	1.9
CNC(=O)c1ccc(C#Cc2ccc3c(c2)C(=O)N(C(C(=O)Nc2nccs2)c2ccccc2)C3)cn1 (racemic) [Example 9, N-Methyl-5-[2-[3-oxo-2-[(1RS)-2-oxo-1-phenyl-2-(thiazol-2-ylamino)ethyl]isoindolin-5-yl]ethynyl]pyridine-2-carboxamide]	16
O=C(Nc1nccs1)C(c1cc(F)ccc1O)N1Cc2ccc(C#Cc3ccccc3)cc2C1=O (racemic) [Example 17, (2RS)-2-(5-Fluoro-2-hydroxy-phenyl)-2-[1-oxo-6-(2-phenylethynyl)isoindolin-2-yl]-N-thiazol-2-yl-acetamide]	6
O=C(Nc1nccs1)C(c1cc(F)ccc1O)N1Cc2ccc(C#Cc3cccnc3)c(F)c2C1=O (racemic) [Example 26, (2RS)-2-(5-Fluoro-2-hydroxy-phenyl)-2-[7-fluoro-1-oxo-6-[2-(3-pyridyl)ethynyl]isoindolin-2-yl]-N-thiazol-2-yl-acetamide]	2
Cc1c(C#Cc2ccc(N)nc2)ccc2c1C(=O)N(C(C(=O)Nc1ccccn1)c1cc(F)ccc1O)C2 (racemic) [Example 22, (2RS)-2-[6-[2-(6-Amino-3-pyridyl)ethynyl]-7-methyl1-oxo-isoindolin-2-yl]-2-(5-fluoro-2-hydroxy-phenyl)-N-(2-pyridyl)acetamide]	3
